Test results published in US10258635B2, “Formulations and compositions of vitamin D analogs for treating and preventing cancer and other diseases” (priority 2013, dated 2019).
Entries after “also recorded” stand apart in the source; their conditions may differ.

Tests used:
[1] = tested on: RCC 54 kidney cancer cells; settings: 7.5×10^−7 to 10^−6M
Description: In a typical assay cells were grown to 50-60% confluence in 24-well plates in respective media containing 5% FBS, and serum starved for 20 hours, followed by treatment with various agents (in 0.1% ethanolic solution) or ethanol (vehicle) in serum-containing medium for 16 hours. After the treatment media was removed from the wells and replaced with media containing ^3H-thymidine (Sigma, 0.1 μCi) per well, and the cells were incubated for 3 hours at 37° C. After this period media was removed by aspiration and the cells were washed thoroughly (3×0.5 ml) with PBS. Ice-cold 5% perchloric acid solution (0.5 ml) was added to each well and the cells were incubated on ice for 20 minutes. After this incubation, perchloric acid was removed by aspiration, replaced with 0.5 ml of fresh perchloric acid solution and the cells were incubated at 70° C. for 20 minutes. Solution from each well was mixed with scintillation fluid and counted in a liquid scintillation counter. There were eight (8) wells per sample; statistics was carried out by Student's t test.

Serum-stability study = format: in vitro ADME; settings: pooled human serum, 37° C., 60 minutes, HPLC
Description: The organic layer was dried in a stream of nitrogen and the residue was analyzed by HPLC (5% H2O— 95% methanol 1.5 ml/min, 265 nm detection, Agilent C18 column).

24-OHase = test: Message for 24-OHase in LNCaP cells; format: cell-based
[2] = tested on: LNCaP, PC-3 and DU-145 prostate cancer cells; test: Anti-proliferation and apoptosis in prostate cancer cells (summary); format: cell-based
[3] = Maximum tolerated dose of AMPI-109 in DU-145 tumor-bearing SCID mice; format: in vivo
Description: DU-145 prostate cancer cells (ATCC, Manassas, Va.) were grown in culture, and then approximately 5 million cells/animal was injected under the skin in the flank area of SCID mice (Charles River). Tumors grew in 2-3 weeks, and when they reached a size of approximately 1 cm^3, they were injected with 0.1, 0.5 and 1 μg/kg dose of AMPI-109 (in 5% […] in sesame oil) intraperitoneally. Dosing levels were limited by concentrations and volumes. Each group had six mice. Dosing was carried out every third day and weight of each mouse was recorded.

[4] = tested on: DU-145 human prostate cancer cells; test: DU-145 xenograft, AMPI-109 vs APH-0701 (Example 12); format: in vivo, athymic mice; settings: 0.5 μg/Kg
Description: Male, athymic mice (average weight 20 gm) were fed normal rat chow and water ad libitum. They were inoculated with DU-145 cells (5×10^6 cells, dispersed in 100 μl PBS) in the flank.

VDR = VDR (Homo sapiens, UniProt P11473); test: Covalent linking to and activation of VDR; format: biochemical; settings: covalent link in ligand-binding pocket via a cysteine residue
Sequence of VDR (P11473 whole entry): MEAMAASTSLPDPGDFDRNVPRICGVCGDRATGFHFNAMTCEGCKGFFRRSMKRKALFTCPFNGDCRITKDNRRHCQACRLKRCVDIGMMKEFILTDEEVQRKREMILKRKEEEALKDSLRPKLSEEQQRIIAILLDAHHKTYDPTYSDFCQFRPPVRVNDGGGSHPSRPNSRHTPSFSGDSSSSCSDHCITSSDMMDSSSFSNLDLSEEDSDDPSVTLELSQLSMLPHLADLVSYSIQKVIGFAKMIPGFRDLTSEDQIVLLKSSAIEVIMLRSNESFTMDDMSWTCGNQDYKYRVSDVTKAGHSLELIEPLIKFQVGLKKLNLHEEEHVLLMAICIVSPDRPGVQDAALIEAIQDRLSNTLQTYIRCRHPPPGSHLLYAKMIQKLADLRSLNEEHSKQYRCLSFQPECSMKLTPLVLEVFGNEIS

DU-145 cells = test: 3H-thymidine incorporation assay in DU-145 cells; format: cell-based, human
normal kidney cells = test: 3H-thymidine incorporation assay in normal kidney cells; format: cell-based; settings: 10^−6M
[5] = tested on: DU-145 human prostate cancer cells; test: DU-145 xenograft efficacy, i.p. administration (Example 10); format: in vivo, athymic mice
Description: Male, athymic mice (average weight 20 gm) were fed normal rat chow and water ad libitum. They were inoculated with DU 145 cells, grown in culture in their flanks under light anesthesia. When the tumor size grew to approximately 100 mm^3 the animals were randomized into groups of ten (10) tumor-bearing animals, and they were given AMPI-109 (0.1 μg/kg), calcitriol (0.5 and 1 μg/kg), and vehicle (5% DMA in sesame oil) by intraperitoneal injection (i.p.) on every third day (when body weights were determined); and one group was left untreated. Treatment started on day 11 and stopped on day 30; and they were left untreated for two (2) additional days when they were sacrificed.

[6] = tested on: DU-145 human prostate cancer cells; test: DU-145 xenograft efficacy, p.o. administration (Example 11); format: in vivo, nude mice
[7] = tested on: LNCaP prostate cancer cells; test: 3H-thymidine incorporation assay, APH-0701 vs naked AMPI-109; format: cell-based
Description: Antiproliferative activities in these cells were measured by ^3H-thymidine incorporation assay.

[8] = Stability study in liver homogenate; format: in vitro ADME, mouse; settings: 37° C., 60 minutes, HPLC
Description: Pieces of liver, obtained from normal mice were minced and homogenized in phosphated saline with a polytron. […] The organic layer was dried in a stream of nitrogen and the residue was analyzed by HPLC (as above).

Structure (SMILES): C=C1/C(=C\C=C2/CCC[C@@]3(C)C2CC[C@@H]3C(C)CCCC(C)(C)O)C[C@@H](OC(=O)CBr)CC1O (stereo partly drawn) [AMPI-109, 1α,25-dihydroxyvitamin D3-3-bromoacetate]
- reduction of proliferation of RCC 54 kidney cancer cells [1]: > 95%
- stability in human serum (Serum-stability study): corresponds to the peak of a standard sample
- message for 24-OHase (24-OHase): up regulated
- apoptosis [2]: induced apoptosis
- anti-proliferative strength relative to calcitriol ([2]; mole-per-mole basis): significantly stronger anti-proliferative agent than calcitriol
- mortality ([3]; 1 μg/kg i.p. every third day): All mice in the 1 μg/Kg dose died after three dosing
- relative MTD ([3]; i.p., every third day, based on dosing): ≤ 3 µg/kg
- gross body-weights [4]: not significantly different from control animals
- average size of tumors at the end of the experiment ([4]; every third day, day 7 to 42): ~475 mm^3
- VDR activation (VDR): constitutively activated VDR
- antiproliferative effect in DU-145 cells (DU-145 cells; 2.5×10^−7M to 10^−6M, 20 hours): strong and dose-dependent antiproliferative effect
- anti-proliferative effect in DU-145 cells (DU-145 cells; 10^−6M, separate experiment): strong anti-proliferative effect; also recorded: significantly stronger antiproliferative agent than EB-1089
- impact on normal kidney cells versus control (normal kidney cells): neither Calcitriol nor AMPI-109 had any statistically different impact
- body weight ([5]; 0.1 μg/kg i.p.): some reduction in body weight
- anti-tumor effect ([5]; 0.1 μg/kg i.p. every third day, day 11 to 30): strong anti-tumor effect
- potency relative to calcitriol in reducing tumor-size ([5]; i.p., weight basis): approximately 5 times
- anti-tumor effect ([6]; 0.5 μg/kg p.o. oral gavage): strong anti-tumor effect
- potency in p.o.-mode relative to i.p.-mode (times less potent) ([6]; mouse, in vivo): 5 times
- body weight ([6]; p.o., calcitriol 0.5 μg/kg and 1.0 μg/kg, AMPI-109 0.5 μg/kg): did not cause any significant change in body weight
- growth of LNCaP cells [7]: almost completely inhibited the growth of LNCaP cells
- stability in mouse liver homogenate [8]: corresponds to the peak of a standard sample
